Tests used:
Test in all cases: biochemical
Set-up in all cases: Kinase selectivity panel, IC50 of AC484 (Supplementary Table 1)
STK16 = STK16 (Homo sapiens, UniProt O75716)
DDR1 = DDR1 (Homo sapiens, UniProt Q08345)
PKG1A = target: T1, PKG1A (Homo sapiens, UniProt Q13976)
T1 construct: gene PRKG1; isoform 1 alpha

Plk3 = Plk3 (Homo sapiens, UniProt Q9H4B4)
MAP4K1 = MAP4K1 (Homo sapiens, UniProt Q92918)
PKCepsilon = target: T2, PKCepsilon (Homo sapiens, UniProt Q02156)
T2 construct: gene PRKCE

JAK3 = JAK3 (Homo sapiens, UniProt P52333)
Sequence of JAK3 (P52333 whole entry): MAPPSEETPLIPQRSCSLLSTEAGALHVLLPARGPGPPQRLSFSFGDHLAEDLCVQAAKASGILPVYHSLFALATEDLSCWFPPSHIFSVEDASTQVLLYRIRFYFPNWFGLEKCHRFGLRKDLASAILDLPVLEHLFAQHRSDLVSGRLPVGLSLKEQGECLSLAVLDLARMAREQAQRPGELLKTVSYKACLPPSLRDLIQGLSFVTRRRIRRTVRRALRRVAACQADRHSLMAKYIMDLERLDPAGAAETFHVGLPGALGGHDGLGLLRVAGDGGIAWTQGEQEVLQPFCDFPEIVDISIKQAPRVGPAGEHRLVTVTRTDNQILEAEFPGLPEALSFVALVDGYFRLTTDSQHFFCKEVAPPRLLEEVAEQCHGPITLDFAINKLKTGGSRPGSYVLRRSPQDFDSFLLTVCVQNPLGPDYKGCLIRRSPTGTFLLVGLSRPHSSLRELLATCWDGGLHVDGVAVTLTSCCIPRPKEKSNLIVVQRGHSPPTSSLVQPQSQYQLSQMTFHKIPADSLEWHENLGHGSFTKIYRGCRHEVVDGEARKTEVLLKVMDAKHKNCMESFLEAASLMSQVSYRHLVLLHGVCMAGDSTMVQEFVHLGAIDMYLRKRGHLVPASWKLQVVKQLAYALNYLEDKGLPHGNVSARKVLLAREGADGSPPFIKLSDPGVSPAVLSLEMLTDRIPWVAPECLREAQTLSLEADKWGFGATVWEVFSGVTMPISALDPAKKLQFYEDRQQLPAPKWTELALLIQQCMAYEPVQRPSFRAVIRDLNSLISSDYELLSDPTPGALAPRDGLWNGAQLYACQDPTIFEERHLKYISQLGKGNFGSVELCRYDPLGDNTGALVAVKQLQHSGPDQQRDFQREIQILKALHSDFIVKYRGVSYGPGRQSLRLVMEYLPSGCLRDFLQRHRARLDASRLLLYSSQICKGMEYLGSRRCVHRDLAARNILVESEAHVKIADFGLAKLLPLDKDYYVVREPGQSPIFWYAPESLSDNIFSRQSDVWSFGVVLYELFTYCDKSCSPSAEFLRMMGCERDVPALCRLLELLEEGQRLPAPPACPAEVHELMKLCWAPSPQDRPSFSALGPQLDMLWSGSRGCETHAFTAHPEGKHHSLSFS

CDK8/Cyclin C = CDK8/Cyclin C (Homo sapiens, UniProt P49336)
Sequence of CDK8/Cyclin C (P49336 whole entry): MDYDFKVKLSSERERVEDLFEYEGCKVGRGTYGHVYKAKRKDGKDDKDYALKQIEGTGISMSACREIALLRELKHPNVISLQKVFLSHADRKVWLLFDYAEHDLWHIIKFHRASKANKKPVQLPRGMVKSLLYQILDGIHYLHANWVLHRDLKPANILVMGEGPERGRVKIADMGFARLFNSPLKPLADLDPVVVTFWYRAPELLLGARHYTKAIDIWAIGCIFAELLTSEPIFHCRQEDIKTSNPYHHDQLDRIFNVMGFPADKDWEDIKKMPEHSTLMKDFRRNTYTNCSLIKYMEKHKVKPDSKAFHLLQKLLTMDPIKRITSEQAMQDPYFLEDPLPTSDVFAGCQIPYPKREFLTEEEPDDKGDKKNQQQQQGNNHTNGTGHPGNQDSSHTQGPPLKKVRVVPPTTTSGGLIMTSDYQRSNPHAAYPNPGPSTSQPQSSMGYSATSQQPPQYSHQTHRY
Sequence of CDK8/Cyclin C (P24863 whole entry partner): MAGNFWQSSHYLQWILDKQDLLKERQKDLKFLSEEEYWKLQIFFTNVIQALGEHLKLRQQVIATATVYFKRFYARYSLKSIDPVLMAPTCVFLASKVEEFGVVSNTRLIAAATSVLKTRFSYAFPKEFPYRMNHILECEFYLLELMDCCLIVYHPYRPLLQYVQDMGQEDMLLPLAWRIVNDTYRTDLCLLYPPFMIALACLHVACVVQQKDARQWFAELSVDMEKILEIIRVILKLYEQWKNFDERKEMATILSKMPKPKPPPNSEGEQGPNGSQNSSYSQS

Blk = Blk (Homo sapiens, UniProt P51451)
Sequence of Blk (P51451 whole entry): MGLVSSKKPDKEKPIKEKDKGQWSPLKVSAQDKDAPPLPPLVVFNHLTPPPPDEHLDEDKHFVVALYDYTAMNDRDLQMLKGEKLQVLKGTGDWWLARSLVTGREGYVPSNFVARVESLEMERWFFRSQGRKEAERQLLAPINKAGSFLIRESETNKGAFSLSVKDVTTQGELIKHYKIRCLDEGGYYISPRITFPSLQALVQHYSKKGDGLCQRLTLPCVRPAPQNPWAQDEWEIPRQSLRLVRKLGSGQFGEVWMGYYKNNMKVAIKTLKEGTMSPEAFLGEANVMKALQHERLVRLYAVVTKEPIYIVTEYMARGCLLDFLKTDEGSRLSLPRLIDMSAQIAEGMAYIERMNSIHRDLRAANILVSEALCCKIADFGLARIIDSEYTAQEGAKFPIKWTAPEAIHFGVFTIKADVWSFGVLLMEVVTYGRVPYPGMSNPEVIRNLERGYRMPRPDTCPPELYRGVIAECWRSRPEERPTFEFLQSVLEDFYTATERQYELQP

Fyn = Fyn (Homo sapiens, UniProt P06241)
CAMKK2 = CAMKK2 (Homo sapiens, UniProt Q96RR4)
MAP4K4 = MAP4K4 (Homo sapiens, UniProt O95819)
Aurora 2 = target: T3, Aurora 2 (Homo sapiens, UniProt O14965)
T3 construct: gene AURKA
T3 sequence (O14965 whole entry): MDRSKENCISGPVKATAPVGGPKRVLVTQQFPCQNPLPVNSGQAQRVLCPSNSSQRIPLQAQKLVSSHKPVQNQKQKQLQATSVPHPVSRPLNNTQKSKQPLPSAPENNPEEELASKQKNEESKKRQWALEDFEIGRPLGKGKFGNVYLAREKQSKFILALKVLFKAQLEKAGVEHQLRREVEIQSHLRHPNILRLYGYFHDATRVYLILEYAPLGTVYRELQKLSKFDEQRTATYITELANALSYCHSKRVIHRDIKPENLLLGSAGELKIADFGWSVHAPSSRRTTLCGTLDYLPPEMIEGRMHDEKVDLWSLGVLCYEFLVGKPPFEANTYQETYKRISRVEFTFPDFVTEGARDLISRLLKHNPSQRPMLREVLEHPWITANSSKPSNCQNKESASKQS

PKCbeta1 = target: T4, PKCbeta1 (Homo sapiens, UniProt P05771)
T4 construct: gene PRKCB; isoform beta1

Rsk2 = target: T5, Rsk2 (Homo sapiens, UniProt P51812)
T5 construct: gene RPS6KA3

TEC = TEC (Homo sapiens, UniProt P42680)
Sequence of TEC (P42680 whole entry): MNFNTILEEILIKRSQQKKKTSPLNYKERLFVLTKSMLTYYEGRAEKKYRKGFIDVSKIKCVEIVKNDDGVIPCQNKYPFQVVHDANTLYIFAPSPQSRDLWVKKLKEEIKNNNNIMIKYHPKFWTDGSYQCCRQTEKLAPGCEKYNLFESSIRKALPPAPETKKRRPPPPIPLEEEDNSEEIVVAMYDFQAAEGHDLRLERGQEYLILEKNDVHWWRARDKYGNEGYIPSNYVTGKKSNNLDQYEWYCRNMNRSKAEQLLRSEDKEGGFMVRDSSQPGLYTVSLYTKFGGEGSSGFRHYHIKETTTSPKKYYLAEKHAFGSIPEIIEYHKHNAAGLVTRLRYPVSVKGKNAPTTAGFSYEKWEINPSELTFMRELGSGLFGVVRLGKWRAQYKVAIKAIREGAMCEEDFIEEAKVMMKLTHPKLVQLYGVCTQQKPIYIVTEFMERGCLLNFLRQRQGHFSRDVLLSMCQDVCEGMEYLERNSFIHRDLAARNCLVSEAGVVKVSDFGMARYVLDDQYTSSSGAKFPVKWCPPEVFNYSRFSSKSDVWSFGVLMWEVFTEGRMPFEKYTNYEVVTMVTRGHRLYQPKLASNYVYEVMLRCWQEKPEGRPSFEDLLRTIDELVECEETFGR

Pim1 = Pim1 (Homo sapiens, UniProt P11309)
Zipk = target: T6, Zipk (Homo sapiens, UniProt O43293)
T6 construct: gene DAPK3

Src = Src (Homo sapiens, UniProt P12931)
Syk = Syk (Homo sapiens, UniProt P43405)
MAP4K3 = MAP4K3 (Homo sapiens, UniProt Q8IVH8)
MAP3K10 = MAP3K10 (Homo sapiens, UniProt Q02779)
Dyrk1A = Dyrk1A (Homo sapiens, UniProt Q13627)
MAP4K2 = MAP4K2 (Homo sapiens, UniProt Q12851)
IKKE = target: T7, IKKE (Homo sapiens, UniProt Q14164)
T7 construct: gene IKBKE

Aurora 1 = target: T8, Aurora 1 (Homo sapiens, UniProt Q96GD4)
T8 construct: gene AURKB

MEK1 = target: T9, MEK1 (Homo sapiens, UniProt Q02750)
T9 construct: gene MAP2K1

FGR = FGR (Homo sapiens, UniProt P09769)
CSK = CSK (Homo sapiens, UniProt P41240)

Measured: IC50

T1 sequence (Q13976 whole entry, canonical isoform): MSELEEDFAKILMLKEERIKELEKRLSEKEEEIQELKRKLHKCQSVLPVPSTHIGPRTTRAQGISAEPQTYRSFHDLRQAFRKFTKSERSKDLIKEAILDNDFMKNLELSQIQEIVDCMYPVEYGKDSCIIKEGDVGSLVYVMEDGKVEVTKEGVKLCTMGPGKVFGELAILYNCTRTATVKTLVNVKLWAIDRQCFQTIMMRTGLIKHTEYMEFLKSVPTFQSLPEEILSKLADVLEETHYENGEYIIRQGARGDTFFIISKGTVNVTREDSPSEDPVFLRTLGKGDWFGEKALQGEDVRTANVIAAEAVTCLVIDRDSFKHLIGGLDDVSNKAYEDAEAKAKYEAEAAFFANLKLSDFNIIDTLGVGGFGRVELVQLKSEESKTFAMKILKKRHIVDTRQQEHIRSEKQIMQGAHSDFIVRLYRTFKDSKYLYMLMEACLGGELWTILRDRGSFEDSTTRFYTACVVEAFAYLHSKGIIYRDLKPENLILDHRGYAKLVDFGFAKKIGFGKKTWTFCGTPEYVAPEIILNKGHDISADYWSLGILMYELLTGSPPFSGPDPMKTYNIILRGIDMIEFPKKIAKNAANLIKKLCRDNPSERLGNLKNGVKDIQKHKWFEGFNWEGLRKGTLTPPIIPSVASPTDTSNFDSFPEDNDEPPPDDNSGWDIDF
Sequence of DDR1 (Q08345 whole entry): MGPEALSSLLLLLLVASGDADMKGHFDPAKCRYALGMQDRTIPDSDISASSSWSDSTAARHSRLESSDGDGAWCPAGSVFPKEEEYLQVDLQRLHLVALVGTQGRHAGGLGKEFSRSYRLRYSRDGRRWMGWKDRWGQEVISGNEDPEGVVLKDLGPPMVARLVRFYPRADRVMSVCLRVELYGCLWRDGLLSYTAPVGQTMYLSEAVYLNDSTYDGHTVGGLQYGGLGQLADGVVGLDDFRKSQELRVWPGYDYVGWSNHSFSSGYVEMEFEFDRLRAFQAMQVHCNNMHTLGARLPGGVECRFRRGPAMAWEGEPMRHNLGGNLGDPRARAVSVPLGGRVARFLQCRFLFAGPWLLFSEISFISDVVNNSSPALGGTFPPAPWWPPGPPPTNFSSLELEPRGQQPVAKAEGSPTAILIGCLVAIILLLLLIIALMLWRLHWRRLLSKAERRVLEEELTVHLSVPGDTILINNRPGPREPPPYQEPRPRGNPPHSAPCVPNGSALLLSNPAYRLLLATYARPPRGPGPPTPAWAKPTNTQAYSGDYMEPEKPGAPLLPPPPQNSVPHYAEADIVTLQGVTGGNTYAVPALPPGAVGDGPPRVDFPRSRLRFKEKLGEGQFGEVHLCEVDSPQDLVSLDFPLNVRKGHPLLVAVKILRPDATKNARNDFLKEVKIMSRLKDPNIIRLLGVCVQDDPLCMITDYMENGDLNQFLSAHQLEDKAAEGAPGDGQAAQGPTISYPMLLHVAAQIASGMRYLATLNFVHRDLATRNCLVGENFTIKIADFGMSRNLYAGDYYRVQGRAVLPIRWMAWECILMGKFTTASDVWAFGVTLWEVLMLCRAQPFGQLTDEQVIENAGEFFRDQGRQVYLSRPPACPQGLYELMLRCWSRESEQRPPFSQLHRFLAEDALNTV

CC(C)CCN[C@@H]1CCc2cc(O)c(N3CC(=O)NS3(=O)=O)c(F)c2C1 [AC484, ABBV-CLS-484]
> 10 µM: all assays above
